The structures appear in SMILES notation. Structures can show the parent of a compound that is named as a salt.

This note sets out measurements from PMC8464850, “Sulfonium Ligands of the α7 nAChR” (Molecules, 2021).

Common to all, as to type: cell-based
Assay [1] concerns the target T1, α4(2)β2(3) (Homo sapiens, UniProt P17787+P43681).
T1 construct: expressed in transfected cells; host or cells: Xenopus laevis oocytes (injected RNA)
The assay is described as follows: Activation of heteromeric nAChR by S1: α4(2)β2(3). The source says:
(§1) Concatamers were used in order to obtain heteromeric receptors with known subunit composition. The β2-6-α4 concatamer was co-expressed with monomeric α4, β2, or α5 to obtain receptors with the composition α4(3)β2(2), α4(2)β2(3), or α4(2)β2(2)α5, respectively. A concatamer of five linked subunits was used to obtain the β3α4 β2α6β2 receptors. The α3β4 receptors were formed from the co-expression of α3 and β4 subunit monomers at equal ratios. Note that the data were initially measured relative to internal ACh control responses for each oocyte (Methods). Responses were subsequently adjusted for the relative values of the ACh controls and the ACh maximum responses for each of the various subtypes, determined in previous experiments.
(§2) Figure 6 Activation of heteromeric neuronal nAChR by S1. […] Data are the average peak currents (n = 6–8 oocytes ± SEM), measured relative to initial ACh control responses for each oocyte (concentrations listed in Methods). Responses were subsequently adjusted for the relative values of the ACh controls and the ACh maximum responses for each of the various subtypes, determined in previous experiments. […]
(§3) Solutions were applied from 96-well plates via disposable tips. […] The responses were calculated as both peak current amplitudes and net charge, as previously described. […] Multi-cell averages were calculated for comparisons of complex responses. […]

Assay [2] concerns the target T2, α4(3)β2(2) (Homo sapiens, UniProt P17787+P43681).
T2 construct: expressed in transfected cells; host or cells: Xenopus laevis oocytes (injected RNA)
The assay is described as follows: Activation of heteromeric nAChR by S1: α4(3)β2(2).
From the text: as §1, §2, §3

Assay [3] addresses T3, muscle-type (α1β1εδ) receptors (Mus musculus, UniProt P02716+P04756+P20782).
T3 construct: expressed in transfected cells; host or cells: Xenopus laevis oocytes (injected RNA)
As to the kind of experiment: Activation of muscle-type receptors. The following applies: not shown. The source says:
The human nAChR clones were obtained from Jon Lindstrom (University of Pennsylvania, Philadelphia, PA, USA). Mouse muscle subunit clones were obtained from Jim Boulter (Salk Institute, La Jolla, CA, USA) and Paul Gardner (Dartmouth, Hanover, NH, USA). The human resistance-to-cholinesterase 3 (RIC3) clone was obtained from Millet Treinin (Hebrew University, Jerusalem, Israel) and co-injected with α7 to improve the level and speed of α7 receptor expression without affecting the pharmacological properties of the receptors. Subsequent to linearization and purification of the plasmid DNAs, RNAs were prepared using the mMessage mMachine in vitro RNA transcription kit (Ambion, Austin, TX, USA).
Experiments were conducted using OpusXpress 6000A (Molecular Devices, Union City, CA, USA). […]
Solutions were applied from 96-well plates via disposable tips. […] The responses were calculated as both peak current amplitudes and net charge, as previously described. Data were collected at 50 Hz, filtered at 20 Hz for α7 receptors or filtered at 5 Hz for heteromeric nAChR, and analyzed by Clampfit (Molecular Devices, San Jose, CA, USA) and Excel (Microsoft, Redmond, WA, USA). Data were expressed as means ± SEM from at least four oocytes for each experiment and plotted with Kaleidagraph 4.5.2 (Abelbeck Software, Reading, PA, USA). Multi-cell averages were calculated for comparisons of complex responses. […]

Assay [4] concerns the target T4, α3β4 nAChR (Homo sapiens, UniProt P30926+P32297).
T4 construct: expressed in transfected cells; host or cells: Xenopus laevis oocytes (injected RNA)
As to the kind of experiment: Inhibition of α3β4 100 µM ACh-evoked peak currents. The following applies: co-application with 100 µM ACh, peak currents. As for the experimental part:
Although none of the other sulfonium compounds activated neuronal heteromeric receptors, several of them produced inhibition of ACh-evoked responses. Shown in Figure 7A are concentration-response studies for the compounds that were active antagonists of α3β4 nAChR (Table 3). Some compounds were also tested as antagonists of α4β2 subtypes formed with concatamers (Figure 7B).
Figure 7 Inhibition of heteromeric nAChR by sulfonium compounds. (A) Inhibition of α3β4 100 µM ACh-evoked peak currents by the co-application of the sulfonium compounds. Data are the averaged of six to eight oocytes (±SEM). To confirm the stability of the ACh responses, applications of ACh plus the sulfonium compounds were alternated with applications of ACh alone. (B) Inhibition of ACh control peak-current responses of α4-containing nAChR formed with concatamers by 100 µM of the sulfonium compounds indicated. Data are the average of six to eight oocytes (±SEM).
Experiments were conducted using OpusXpress 6000A (Molecular Devices, Union City, CA, USA). Both the voltage and current electrodes were filled with 3 M KCl. Oocytes were voltage-clamped at −60 mV at room temperature (24 °C). The oocytes were bath-perfused with Ringer’s solution (115 mM NaCl, 2.5 mM KCl, 1.8 mM CaCl2, 10 mM HEPES, and 1 μM atropine, pH 7.2) at 2 mL/min for α7 receptors, or 4 mL/min for heteromeric nAChR. To evaluate the effects of experimental compounds, responses were compared to control ACh-evoked responses, defined as the average of two initial applications of ACh made before test applications. ACh control concentrations were 60 µM for α7 receptors; 100 µM for α4(3)β2(2) and α3β4 receptors; 30 µM for α4β2α6β2β3 and muscle-type (αβ1εδ) receptors; and 10 µM for α4(3)β2(2) and α4(2)β2(2)α5 receptors.
Solutions were applied from 96-well plates via disposable tips. Drug applications were 12 s in duration, followed by 181 s washout periods for α7 receptors, or 6 s in duration followed by 301 s washout periods for heteromeric nAChR. The responses were calculated as both peak current amplitudes and net charge, as previously described. Data were collected at 50 Hz, filtered at 20 Hz for α7 receptors or filtered at 5 Hz for heteromeric nAChR, and analyzed by Clampfit (Molecular Devices, San Jose, CA, USA) and Excel (Microsoft, Redmond, WA, USA). Data were expressed as means ± SEM from at least four oocytes for each experiment and plotted with Kaleidagraph 4.5.2 (Abelbeck Software, Reading, PA, USA). Multi-cell averages were calculated for comparisons of complex responses. Averages of the normalized data were calculated for each of the 10,322 points in each of the 206.44 s traces (acquired at 50 Hz), as well as the standard errors for those averages.

The mark [5] stands for this setting: peak currents relative to ACh maximum.

T2 sequence (P17787 26-502): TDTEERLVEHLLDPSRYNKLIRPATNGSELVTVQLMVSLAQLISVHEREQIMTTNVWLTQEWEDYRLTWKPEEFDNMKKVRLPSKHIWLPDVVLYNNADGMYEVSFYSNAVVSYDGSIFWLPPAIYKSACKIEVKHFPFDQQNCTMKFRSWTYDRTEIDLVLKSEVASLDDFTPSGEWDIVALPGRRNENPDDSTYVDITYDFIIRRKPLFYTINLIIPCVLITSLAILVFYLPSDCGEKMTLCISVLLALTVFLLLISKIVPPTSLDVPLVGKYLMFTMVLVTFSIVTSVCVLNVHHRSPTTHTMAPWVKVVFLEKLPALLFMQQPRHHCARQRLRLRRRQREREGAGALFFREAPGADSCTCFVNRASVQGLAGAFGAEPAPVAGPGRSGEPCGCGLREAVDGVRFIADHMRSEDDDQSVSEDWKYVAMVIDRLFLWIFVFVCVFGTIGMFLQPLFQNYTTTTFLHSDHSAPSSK
T2 sequence (P43681 29-627 limits assumed): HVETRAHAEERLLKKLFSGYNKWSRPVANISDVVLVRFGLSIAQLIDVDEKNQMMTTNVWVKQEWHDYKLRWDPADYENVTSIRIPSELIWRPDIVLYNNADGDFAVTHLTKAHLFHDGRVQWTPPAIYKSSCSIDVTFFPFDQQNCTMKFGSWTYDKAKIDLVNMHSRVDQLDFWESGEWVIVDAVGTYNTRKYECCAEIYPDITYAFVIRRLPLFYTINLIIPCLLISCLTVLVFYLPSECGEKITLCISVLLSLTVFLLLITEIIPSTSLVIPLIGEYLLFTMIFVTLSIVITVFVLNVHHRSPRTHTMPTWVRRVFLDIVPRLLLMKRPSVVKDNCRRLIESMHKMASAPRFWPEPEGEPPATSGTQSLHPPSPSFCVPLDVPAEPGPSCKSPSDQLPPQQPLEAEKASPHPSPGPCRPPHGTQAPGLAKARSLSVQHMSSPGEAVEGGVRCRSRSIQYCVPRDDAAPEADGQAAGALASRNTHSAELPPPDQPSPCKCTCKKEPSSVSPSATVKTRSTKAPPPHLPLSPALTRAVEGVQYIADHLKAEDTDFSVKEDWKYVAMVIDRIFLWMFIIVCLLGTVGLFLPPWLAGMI
T2 sequence (P43681 29-627 limits assumed): as above
T1 sequence (P17787 26-502): as the sequence (P17787 26-502) above
T1 sequence (P43681 29-627 limits assumed): as the sequence (P43681 29-627 limits assumed) above
T1 sequence (P17787 26-502): as the sequence (P17787 26-502) above
T3 sequence (P04756 21-457): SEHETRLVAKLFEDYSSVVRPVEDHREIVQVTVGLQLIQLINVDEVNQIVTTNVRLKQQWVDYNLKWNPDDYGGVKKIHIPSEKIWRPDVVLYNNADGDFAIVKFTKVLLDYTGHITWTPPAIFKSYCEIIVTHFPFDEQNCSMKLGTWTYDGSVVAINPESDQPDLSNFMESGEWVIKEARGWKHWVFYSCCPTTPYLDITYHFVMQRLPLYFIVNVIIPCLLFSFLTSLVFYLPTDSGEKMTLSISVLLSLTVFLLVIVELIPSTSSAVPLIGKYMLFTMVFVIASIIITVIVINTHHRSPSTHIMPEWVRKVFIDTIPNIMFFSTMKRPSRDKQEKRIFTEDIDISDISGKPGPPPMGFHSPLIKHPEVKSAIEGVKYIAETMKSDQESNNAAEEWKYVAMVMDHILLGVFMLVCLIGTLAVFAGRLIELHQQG
T3 sequence (P09690 24-501 partner): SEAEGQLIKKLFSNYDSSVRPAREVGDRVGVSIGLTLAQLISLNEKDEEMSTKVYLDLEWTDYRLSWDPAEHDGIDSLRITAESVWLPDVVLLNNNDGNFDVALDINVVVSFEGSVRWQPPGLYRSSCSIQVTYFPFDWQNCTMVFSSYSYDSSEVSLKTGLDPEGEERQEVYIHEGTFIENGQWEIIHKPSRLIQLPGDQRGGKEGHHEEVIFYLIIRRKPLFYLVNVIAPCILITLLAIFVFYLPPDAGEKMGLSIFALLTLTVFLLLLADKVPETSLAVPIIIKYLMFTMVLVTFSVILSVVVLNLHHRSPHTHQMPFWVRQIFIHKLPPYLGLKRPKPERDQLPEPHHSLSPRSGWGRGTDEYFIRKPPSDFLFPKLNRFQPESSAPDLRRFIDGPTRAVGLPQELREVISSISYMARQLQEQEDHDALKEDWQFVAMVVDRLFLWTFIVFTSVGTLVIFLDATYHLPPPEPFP
T3 sequence (P20782 21-493): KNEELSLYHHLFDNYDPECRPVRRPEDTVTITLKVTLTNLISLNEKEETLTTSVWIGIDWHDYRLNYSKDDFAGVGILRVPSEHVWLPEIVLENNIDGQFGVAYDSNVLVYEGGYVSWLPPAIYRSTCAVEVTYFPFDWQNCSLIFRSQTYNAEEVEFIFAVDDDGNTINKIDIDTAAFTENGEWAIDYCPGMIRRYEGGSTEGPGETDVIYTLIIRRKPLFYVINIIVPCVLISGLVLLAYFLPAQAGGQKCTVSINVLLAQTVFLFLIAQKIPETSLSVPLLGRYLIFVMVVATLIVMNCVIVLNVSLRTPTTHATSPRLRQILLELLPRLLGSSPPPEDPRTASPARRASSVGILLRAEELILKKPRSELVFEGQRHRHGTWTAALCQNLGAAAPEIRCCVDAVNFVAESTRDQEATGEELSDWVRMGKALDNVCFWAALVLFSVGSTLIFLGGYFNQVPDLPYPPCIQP
T3 sequence (P02716 25-520): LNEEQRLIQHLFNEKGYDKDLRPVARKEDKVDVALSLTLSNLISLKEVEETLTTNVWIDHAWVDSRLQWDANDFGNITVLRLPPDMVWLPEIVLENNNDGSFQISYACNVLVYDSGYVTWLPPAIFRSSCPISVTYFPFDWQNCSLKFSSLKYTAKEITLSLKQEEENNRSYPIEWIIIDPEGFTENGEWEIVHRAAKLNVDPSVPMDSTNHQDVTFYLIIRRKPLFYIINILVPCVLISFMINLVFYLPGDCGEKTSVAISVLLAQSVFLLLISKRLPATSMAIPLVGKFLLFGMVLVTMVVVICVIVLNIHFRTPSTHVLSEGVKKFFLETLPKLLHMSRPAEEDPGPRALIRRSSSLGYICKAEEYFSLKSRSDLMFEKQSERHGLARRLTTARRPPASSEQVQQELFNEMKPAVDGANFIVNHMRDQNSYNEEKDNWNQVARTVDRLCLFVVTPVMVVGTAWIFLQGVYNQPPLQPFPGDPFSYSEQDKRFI
T4 sequence (P32297 32-505): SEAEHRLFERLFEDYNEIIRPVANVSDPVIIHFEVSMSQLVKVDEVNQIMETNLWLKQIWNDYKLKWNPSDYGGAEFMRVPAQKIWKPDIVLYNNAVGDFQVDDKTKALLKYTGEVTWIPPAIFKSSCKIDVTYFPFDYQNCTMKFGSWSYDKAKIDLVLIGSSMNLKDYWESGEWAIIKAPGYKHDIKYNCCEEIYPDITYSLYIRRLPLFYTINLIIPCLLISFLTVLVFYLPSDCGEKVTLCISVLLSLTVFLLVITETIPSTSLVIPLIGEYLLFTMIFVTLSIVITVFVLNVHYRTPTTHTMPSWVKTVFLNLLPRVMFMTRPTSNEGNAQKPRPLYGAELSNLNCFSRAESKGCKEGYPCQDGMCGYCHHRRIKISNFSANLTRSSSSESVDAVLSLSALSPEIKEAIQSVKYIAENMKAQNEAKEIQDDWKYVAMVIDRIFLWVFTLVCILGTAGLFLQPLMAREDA
T4 sequence (P30926 22-498): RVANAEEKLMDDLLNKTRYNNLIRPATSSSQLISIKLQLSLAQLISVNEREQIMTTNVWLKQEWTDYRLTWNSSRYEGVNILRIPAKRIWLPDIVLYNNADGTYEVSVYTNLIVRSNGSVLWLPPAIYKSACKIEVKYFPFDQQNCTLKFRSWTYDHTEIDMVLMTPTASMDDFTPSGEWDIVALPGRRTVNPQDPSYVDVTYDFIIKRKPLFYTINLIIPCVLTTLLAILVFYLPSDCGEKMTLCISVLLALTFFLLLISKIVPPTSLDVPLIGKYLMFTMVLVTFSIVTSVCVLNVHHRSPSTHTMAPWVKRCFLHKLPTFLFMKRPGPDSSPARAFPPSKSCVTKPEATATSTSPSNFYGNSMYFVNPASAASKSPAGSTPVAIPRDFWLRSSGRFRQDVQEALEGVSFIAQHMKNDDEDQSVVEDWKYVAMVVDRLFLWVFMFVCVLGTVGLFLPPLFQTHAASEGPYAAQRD

As for `C[S+](C)C.[I-]` [Compound S1, trimethylsulfonium iodide], the “IMax (S1 Activation)” value in assay [1] (setting [5]) worked out at 0.89 ± 0.44; in assay [2] (setting [5]), 1.2 ± 0.2. Besides, the EC50 – broadly, the concentration needed to bring the measured effect to its halfway point – was determined as 1060 ± 1240 µM in assay [1] (peak currents, unit inferred) and 246 ± 104 µM in assay [2] (peak currents, unit inferred). In addition, in assay [3], the “activation of muscle-type receptors” value is “not an effective activator”.

`C[S+](C)c1ccc(O)cc1` [Compound S9, (4-hydroxyphenyl)dimethylsulfonium methyl sulfate]: the IC50 – broadly, the concentration at which inhibition is half-maximal – in assay [4] was 124 ± 22 µM.
